In patent US6355635B1, “Compounds for the treatment of obesity” (Pfizer Inc., priority 1999, dated 2002):

Test system: endogenous NPY response
Assay: Endogenous NPY response in Bowes melanoma host cells
Settings: 10 uM; human Bowes melanoma cells (HMCB), low levels of Y1 responses
Experimental: This plasmid construct is used along with calcium phosphates to stably transfect human Bowes melanoma cells (HMCB; obtained from ATCC, Rockville, Md.), a cell line in which several Gαi-linked receptors are expressed at reasonable levels and are coupled to functional responses. Cells are maintained at 37° C. and 5% CO2 in Eagle's minimum essential medium with 0.1 mM non-essential amino acids, 1.0 mM sodium pyruvate and 25 mM HEPES which is supplemented with 10% fetal bovine serum (pH 7.3).

NC(N)=NCCC[C@@H](NC(=O)C(c1ccccc1)c1ccccc1)C(=O)NCc1ccc(O)cc1 [BIBP3226]
block of the endogenous NPY response: completely blocks
